Among the data in PubChem BioAssay AID330 (DTP/NCI, 2004) are T/C values, retold here.

This assay concerns P388 leukemia ip, CD2F1 mice, survival T/C. As to the kind of experiment: NCI In Vivo Anticancer Drug Screen. Data for tumor model P388 Leukemia (intraperitoneal) in CD2F1 (CDF1) mice. Particulars: endpoint: median survival time, higher = longer survival. In outline: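 Mice carrying the transplanted tumor received test compound or vehicle. Survival was recorded in each group, and the value is the treated-group measurement divided by that of the vehicle-treated control group.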

Setting [1] is: dose: 50.0 mg/kg/injection, schedule: Q01DX005 (ip), vehicle: saline with Tween-80.
Setting [2] is: dose: 100.0 mg/kg/injection, schedule: Q01DX005 (ip), vehicle: saline with Tween-80.
[3] abbreviates: dose: 100.0 mg/kg/injection, schedule: Q01DX009 (ip), vehicle: saline with Tween-80.
Where [4] appears, read: dose: 100.0 mg/kg/injection, schedule: Q04DX003 (ip), vehicle: saline with Tween-80.
The mark [5] stands for this setting: dose: 200.0 mg/kg/injection, schedule: Q01DX009 (ip), vehicle: saline with Tween-80.

Values joined by “and” are separate entries in the source; they are usually repeats but may differ in a detail not shown here. Identical values can stand only once. Toxic doses and inconclusive results are not listed.

With `CC(C)=CCC/C(C)=C/CC/C(C)=C/CC/C(C)=C/CC/C(C)=C/CC/C(C)=C/CC/C(C)=C/CC/C(C)=C/CC/C(C)=C/CO`, the T/C (dose: 6.25 mg/kg/injection, schedule: Q01DX009 (ip), vehicle: saline + alcohol) is 98 % of control; the T/C (dose: 12.5 mg/kg/injection, schedule: Q01DX009 (ip), vehicle: saline + alcohol) is 96 % of control; the T/C (dose: 25.0 mg/kg/injection, schedule: Q01DX009 (ip), vehicle: saline + alcohol) is 99 % of control; the T/C (dose: 50.0 mg/kg/injection, schedule: Q01DX009 (ip), vehicle: saline + alcohol) is 107 % of control; the T/C (dose: 100.0 mg/kg/injection, schedule: Q01DX009 (ip), vehicle: saline + alcohol) was 96 % of control; the T/C (dose: 200.0 mg/kg/injection, schedule: Q01DX009 (ip), vehicle: saline + alcohol) was 109 % of control.

As to `C1CCC2C[N-]CCC2C1.C1CCC2C[N-]CCC2C1.C1CCC2C[N-]CCC2C1.C1CCC2C[N-]CCC2C1.[Cl][Rh][Cl]` (stereo not given), the T/C (dose: 0.06 mg/kg/injection, schedule: Q03HX024 (ip), vehicle: saline) is 105 % of control; the T/C (dose: 0.13 mg/kg/injection, schedule: Q03HX008 (ip), vehicle: saline) is 113 % of control; the T/C (dose: 0.13 mg/kg/injection, schedule: Q03HX016 (ip), vehicle: saline) was 105 % of control; the T/C (dose: 0.13 mg/kg/injection, schedule: Q03HX024 (ip), vehicle: saline) was 100 % of control; the T/C (dose: 0.25 mg/kg/injection, schedule: Q01DX009 (ip), vehicle: saline) is 107 % of control; the T/C (dose: 0.25 mg/kg/injection, schedule: Q03HX008 (ip), vehicle: saline) is 118 % of control. Also, the T/C was 110 % of control (dose: 0.25 mg/kg/injection, schedule: Q03HX016 (ip), vehicle: saline); 108 % of control (dose: 0.25 mg/kg/injection, schedule: Q03HX024 (ip), vehicle: saline); 110 % of control (dose: 0.5 mg/kg/injection, schedule: Q01DX009 (ip), vehicle: saline); 123 % of control (dose: 0.5 mg/kg/injection, schedule: Q03HX008 (ip), vehicle: saline); 116 % of control (dose: 0.5 mg/kg/injection, schedule: Q03HX016 (ip), vehicle: saline); 117 % of control (dose: 0.5 mg/kg/injection, schedule: Q03HX024 (ip), vehicle: saline). The T/C (dose: 0.5 mg/kg/injection, schedule: Q04DX003 (ip), vehicle: saline) is 111 % of control; the T/C (dose: 1.0 mg/kg/injection, schedule: Q01DX001 (ip), vehicle: saline) is 118 % of control; the T/C (dose: 1.0 mg/kg/injection, schedule: Q03HX008 (ip), vehicle: saline) is 121 % of control; the T/C (dose: 1.0 mg/kg/injection, schedule: Q03HX016 (ip), vehicle: saline) was 115 % of control; the T/C (dose: 1.0 mg/kg/injection, schedule: Q04DX003 (ip), vehicle: saline) is 113 % of control; the T/C (dose: 1.0 mg/kg/injection, schedule: Q08DX002 (ip), vehicle: saline) is 114 % of control. Also, the T/C runs as follows: (dose: 1.3 mg/kg/injection, schedule: Q01DX009 (ip), vehicle: water) 111 % of control; (dose: 2.0 mg/kg/injection, schedule: Q01DX001 (ip), vehicle: saline) 119 % of control; (dose: 2.0 mg/kg/injection, schedule: Q03HX008 (ip), vehicle: saline) 119 % of control; (dose: 2.0 mg/kg/injection, schedule: Q04DX003 (ip), vehicle: saline) 115 % of control; (dose: 2.0 mg/kg/injection, schedule: Q08DX002 (ip), vehicle: saline) 121 % of control; (dose: 3.0 mg/kg/injection, schedule: Q01DX009 (ip), vehicle: water) 111 % of control. Also, the T/C is 150 % of control (dose: 3.13 mg/kg/injection, schedule: Q04DX003 (ip), vehicle: saline with Tween-80); 118 % of control (dose: 4.0 mg/kg/injection, schedule: Q01DX001 (ip), vehicle: saline); 110 % of control (dose: 4.0 mg/kg/injection, schedule: Q03HX016 (ip), vehicle: saline); 124 % of control (dose: 4.0 mg/kg/injection, schedule: Q04DX003 (ip), vehicle: saline); 123 % of control (dose: 4.0 mg/kg/injection, schedule: Q08DX002 (ip), vehicle: saline); 150 % of control (dose: 6.25 mg/kg/injection, schedule: Q04DX003 (ip), vehicle: saline with Tween-80). For the same compound, the T/C reads like this: (dose: 8.0 mg/kg/injection, schedule: Q08DX002 (ip), vehicle: saline) 123 % of control; (dose: 12.5 mg/kg/injection, schedule: Q04DX003 (ip), vehicle: saline with Tween-80) 90 % of control.

For the compound `O=C1Nc2ccc3cn[nH]c3c2C1=O`, the T/C was 98 % of control under setting [1]; 101 % of control under setting [2]; 105 % of control (dose: 200.0 mg/kg/injection, schedule: Q01DX005 (ip), vehicle: saline with Tween-80).

As to `NC(Cc1ccccc1)=S=O`, the T/C runs as follows: (dose: 100.0 mg/kg/injection, schedule: Q04DX002 (ip), vehicle: Klucel (hydroxypropylcellulose) (HPC)) 97 % of control; (dose: 200.0 mg/kg/injection, schedule: Q04DX002 (ip), vehicle: Klucel (hydroxypropylcellulose) (HPC)) 95 % of control.

Consider `C/C=C(\CC)C(C#N)O[Si](C)(C)C` (stereo not given), for which the T/C is 93 % of control (dose: 60.0 mg/kg/injection, schedule: Q01DX005 (ip), vehicle: saline with Tween-80) and 98 % of control (dose: 120.0 mg/kg/injection, schedule: Q01DX005 (ip), vehicle: saline with Tween-80).

Regarding `CS(=O)(=O)OCCCCO`, the T/C is, setting by setting: under setting [3], 100 % of control; under setting [4], 100 % of control; under setting [5], 110 % of control; (dose: 200.0 mg/kg/injection, schedule: Q04DX003 (ip), vehicle: saline with Tween-80) 100 % of control; (dose: 400.0 mg/kg/injection, schedule: Q01DX009 (ip), vehicle: saline with Tween-80) 110 % of control; (dose: 400.0 mg/kg/injection, schedule: Q04DX003 (ip), vehicle: saline with Tween-80) 91 % of control.

With `OC(CNC1CCCCC1)c1ccccc1` (stereo not given), the T/C runs as follows: (dose: 6.25 mg/kg/injection, schedule: Q01DX009 (ip), vehicle: Klucel (hydroxypropylcellulose) (HPC)) 98 % of control; (dose: 12.5 mg/kg/injection, schedule: Q01DX009 (ip), vehicle: Klucel (hydroxypropylcellulose) (HPC)) 100 % of control; (dose: 25.0 mg/kg/injection, schedule: Q01DX009 (ip), vehicle: Klucel (hydroxypropylcellulose) (HPC)) 95 % of control; (dose: 50.0 mg/kg/injection, schedule: Q01DX009 (ip), vehicle: Klucel (hydroxypropylcellulose) (HPC)) 109 % of control.

Consider `O=C1C2=C(CCC2)C2CCCC12` (stereo not given), for which the T/C is 102 % of control (dose: 50.0 mg/kg/injection, schedule: Q01DX009 (ip), vehicle: saline with Tween-80); 109 % of control under setting [3]; 90 % of control under setting [5].

In the case of `O=C1C=C(c2ccccc2)S(=O)(=O)c2ccc(O)cc21`, the T/C reads like this: under setting [1], 121 % of control; under setting [2], 110 % of control.

Turning to `C[C@]12CC[C@H](OC(=O)/C=C\c3ccccc3N(CCCl)CCCl)CC1CC[C@@H]1C2CC[C@]2(C)NC(=O)CCC12` (stereo not given in full), the T/C is, setting by setting: (dose: 100.0 mg/kg/injection, schedule: Q01DX001 (ip), vehicle: saline with Tween-80) 105 % of control and 120 % of control; (dose: 200.0 mg/kg/injection, schedule: Q01DX001 (ip), vehicle: saline with Tween-80) 118 % of control.

In the case of `CCC1=C2C(=O)c3ccccc3C2=C(C)S(=O)(=O)O1`, the T/C (dose: 50.0 mg/kg/injection, schedule: Q04DX003 (ip), vehicle: saline with Tween-80) is 109 % of control and the T/C under setting [4] is 86 % of control.

`Cc1cc(=O)oc2c1c(=O)[nH]n2-c1ccccc1`: the T/C by setting is: (dose: 50.0 mg/kg/injection, schedule: Q01DX005 (ip), vehicle: Klucel (hydroxypropylcellulose) (HPC)) 95 % of control; (dose: 100.0 mg/kg/injection, schedule: Q01DX005 (ip), vehicle: Klucel (hydroxypropylcellulose) (HPC)) 87 % of control; (dose: 200.0 mg/kg/injection, schedule: Q01DX005 (ip), vehicle: Klucel (hydroxypropylcellulose) (HPC)) 86 % of control.

Turning to `CC1C(O)C(O)CC2COCC21` (stereo not given), the T/C is 100 % of control (dose: 37.5 mg/kg/injection, schedule: Q01DX001 (ip), vehicle: saline); 100 % of control (dose: 75.0 mg/kg/injection, schedule: Q01DX001 (ip), vehicle: saline); 104 % of control (dose: 150.0 mg/kg/injection, schedule: Q01DX001 (ip), vehicle: saline).
